From patent US7037901B1, “Radiosensitization by indolocarbazole derivatives” (priority 2001, dated 2006)
Read-outs that look alike come from different tables or passages of the source.

How the values were obtained:
[1] = test system: TOP1 mutant DC3F/C10 cells; assay: Radiosensitization in DC3F/C10 cells (clonogenic survival with radiation); format: cell-based, Chinese hamster; conditions: for Radiation Dose (Gy) at 10% Survival / SER / Induction of RS: DC3F/C10 cells; for Resistance of DC3F/C-10 cells to induction of RS: in comparison to the DC3F cells, Table 4; for Induction of RS: concentrations as high as 10 μg/ml (data not shown)
Procedure: (§1) Clonogenic Survival Assay. […] 18–24 h prior to experimental studies.
(§2) Colonies consisting of >50 cells were counted.
(§3) Irradiation of Cells. Drug-treated and control cells in medium were irradiated using a cobalt-60 source (Eldorado 8; Theratronics, Canada) at a dose rate of 105 cGy/min.
(§4) Analysis of Survival Curves. Survival curves were corrected for cytotoxicity induced by drug alone treatment. Sensitization enhancement ratios (SERs) and standard deviations for survival curves were determined at 10% cell survival. Each SER was calculated by dividing the radiation dose to induce 10% cell survival in the absence of radiosensitizer with the radiation dose to induce 10% cell survival in the presence of radiosensitizer.

[2] = test system: DC3F cells; assay: Radiosensitization in DC3F cells (clonogenic survival with radiation); format: cell-based, Chinese hamster; conditions: for Induction of RS: concentrations as high as 10 μg/ml (data not shown)
Procedure: as §1, §2, §3, §4

[3] = test system: camptothecin-resistant, TOP1 mutant DC3F/C-10 cells; conditions: for Cytotoxic effect: DC3F/C10 cells
Procedure: (§5) Clonogenic Survival Assay. For a typical clonogenic survival experiment, stock cultures of exponentially growing cells were trypsinized, rinsed, and plated (5×10^5 cells per dish for DC3F and DC3F/C-10 cells; 1×10^6 cells for MCF-7 cells) into 100-mm petri dishes and incubated at 37° C. 18–24 h prior to experimental studies.
(§6) Following various experimental protocols with drug incubation and irradiation, cells were trypsinized, rinsed, counted, and plated for […] colony formation. Depending on the anticipated survival level, 10^2 to 10^5 cells were plated per dose point. When higher cell numbers were plated, large petri dishes were used to avoid possible cell-density effect (100-mm instead of 60-mm petri dishes for cell number≧5×10^4). Depending on the treatment protocols, an equivalent amount of DMSO was added into each of the control radiation alone dishes (final DMSO concentration <0.1%).
(§7) Following seven to fourteen days of incubation, colonies were fixed with methanol/acetic acid (3:1), stained with crystal violet. Colonies consisting of >50 cells were counted. All survival points were done in triplicate, and experiments were conducted a minimum of two times. Error bars shown in the figures represent standard deviations (SD) and are shown when larger than the symbol.
(§8) The DC3F/C-10 cell line was selected from the Chinese Hamster lung fibroblast DC3F cell line in the presence of 1 μM of camptothecin (Albright, N., Radiat. Res., 112:331–340 (1987), and Chen, Y. N., J. Biol. Chem., 265:10073–10080 (1990)). […] In an attempt to determine the importance of TOP1 in mediating the cytotoxic and radiosensitizing effects by INDO derivatives, clonogenic survival assays were performed in DC3F and DC3F/C10 cells.

[4] = test system: human breast cancer MCF-7 cells; assay: Clonogenic survival assay, drug alone (cytotoxicity) in MCF-7 cells; format: cell-based; conditions: 2 μg/ml for 1 h, read graphically from FIG. 2
Procedure: as §1, §2

[5] = test system: human breast cancer MCF-7 cells; assay: Clonogenic survival assay with radiation (radiosensitization) in MCF-7 cells; format: cell-based; conditions: for ER (SER per footnote c, sensitization enhancement ratio): 2 μg/ml 1 h before radiation, at 10% survival; for Dq (width of the shoulder of the radiation survival curve): SHMT model fit, FIG. 3B; for Induction of RS / enhancement of radiocytotoxicity: one-hour preincubation with 2 μg/ml, FIG. 2; for RT dose (Gy) at 10% survival: pre-treated 2 μg/ml 1 h, rinsed, then radiation; for Enhancement of radiocytotoxicity: 10 μg/ml (data not shown)
Procedure: as §1, §2, §3, §4
The updated programs developed by Dr. N. Albright (San Rafael, Calif.) (Albright, N., Radiat. Res., 112:331–340 (1987)) were used for curve fitting for MCF-7 cells with the linear quadratic (LQ) and the single hit multi-target (SHMT) models. Both the LQ and SHMT models gave qualitatively good fits. The fit with the SHMT model was used for the present study.

[6] = test system: Chinese Hamster lung fibroblast DC3F cells; assay: Clonogenic survival assay, cytotoxicity in DC3F cells
Procedure: as §5, §6, §7, §8

[7] = test system: Chinese hamster CHO cells; assay: Radiosensitization in CHO cells (preliminary, data not shown); format: cell-based; conditions: non-cytotoxic concentrations of 2 μg/ml and 10 μg/ml
[8] = target: camptothecin-resistant TOP1 mutant F361S (Homo sapiens, UniProt P11387, F361S); conditions: published work; cited from earlier work
Chain of camptothecin-resistant TOP1 mutant F361S (P11387 whole entry F361S): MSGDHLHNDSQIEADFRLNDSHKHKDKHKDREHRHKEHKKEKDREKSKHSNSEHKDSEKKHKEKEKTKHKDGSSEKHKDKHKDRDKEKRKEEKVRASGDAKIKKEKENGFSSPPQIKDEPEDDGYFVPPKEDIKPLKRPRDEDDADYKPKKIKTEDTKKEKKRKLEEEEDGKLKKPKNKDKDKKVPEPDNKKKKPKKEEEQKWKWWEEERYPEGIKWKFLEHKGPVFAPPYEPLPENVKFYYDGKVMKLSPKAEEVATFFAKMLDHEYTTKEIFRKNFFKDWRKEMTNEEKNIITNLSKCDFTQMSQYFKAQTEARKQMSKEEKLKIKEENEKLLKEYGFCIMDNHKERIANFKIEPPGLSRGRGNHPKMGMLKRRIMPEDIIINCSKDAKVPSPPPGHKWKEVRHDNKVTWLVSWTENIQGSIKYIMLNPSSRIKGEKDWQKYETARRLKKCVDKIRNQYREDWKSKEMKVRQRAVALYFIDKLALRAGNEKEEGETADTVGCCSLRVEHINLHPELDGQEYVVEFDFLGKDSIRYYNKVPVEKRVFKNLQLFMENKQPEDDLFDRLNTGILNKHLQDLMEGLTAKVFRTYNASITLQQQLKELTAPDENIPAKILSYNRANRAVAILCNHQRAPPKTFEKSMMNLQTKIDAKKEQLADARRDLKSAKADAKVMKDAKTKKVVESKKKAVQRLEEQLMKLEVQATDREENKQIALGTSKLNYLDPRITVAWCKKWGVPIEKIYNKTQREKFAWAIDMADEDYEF

## CO[C@H]1[C@H](O)[C@@H](O)[C@H](n2c3c(Cl)cccc3c3c4c(c5c6cccc(Cl)c6[nH]c5c32)C(=O)NC4=O)O[C@@H]1CO [F1, rebeccamycin]
[1]; 5.0 μg/ml
  Radiation Dose (Gy) at 10% Survival: 4.8 Gy
  SER: 1.1
[1]; 25 μg/ml
  Radiation Dose (Gy) at 10% Survival: 4.5 Gy
  SER: 1.2
[1]
  Resistance of DC3F/C-10 cells to induction of RS: showed resistance to induction of RS
[2]; 1.0 μg/ml
  Radiation Dose (Gy) at 10% Survival: 4.9 Gy
  SER: 1.2
[2]; 5.0 μg/ml
  Radiation Dose (Gy) at 10% Survival: 4.6 Gy
  SER: 1.3
[3]
  Cytotoxic effect: lack of cytotoxic effect
[4]
  Percent of cell survival without RT: 94 ± 8%
[5]
  ER (SER per footnote c, sensitization enhancement ratio): 1.9
  Dq (width of the shoulder of the radiation survival curve): drastically reduced
  Induction of RS / enhancement of radiocytotoxicity: induction of RS was observed
  RT dose (Gy) at 10% survival: 3.8 Gy
[6]
  Cytotoxic effect: lack of cytotoxic effect

## COC1C(CO)OC(n2c3ccccc3c3c4c(c5c6ccccc6[nH]c5c32)C(=O)OC4=O)C(O)C1O (stereo not shown) [F5]
[3]
  Cytotoxic effect: lack of cytotoxic effect
[4]
  Percent of cell survival without RT: 98 ± 2%
[5]
  ER (SER per footnote c, sensitization enhancement ratio): 1.7
  Dq (width of the shoulder of the radiation survival curve): drastically reduced
  Induction of RS / enhancement of radiocytotoxicity: induction of RS was observed
  RT dose (Gy) at 10% survival: 4.2 Gy
[6]; DC3F cells
  Cytotoxic effect: lack of cytotoxic effect
[7]
  Induction of RS: potent inducer of RS

## COC1C(CO)OC(n2c3ccccc3c3c4c(c5c6ccccc6[nH]c5c32)C(=O)N(O)C4=O)C(O)C1O (stereo not shown) [F7]
[1]; 5.0 μg/ml
  Radiation Dose (Gy) at 10% Survival: 5.2 Gy
  SER: 1.0
[1]; 10 μg/ml
  Radiation Dose (Gy) at 10% Survival: 4.9 Gy
  SER: 1.1
[1]; 20 μg/ml
  Radiation Dose (Gy) at 10% Survival: 4.1 Gy
  SER: 1.3
[1]
  Resistance of DC3F/C-10 cells to induction of RS: showed resistance to induction of RS
[2]; 2.5 μg/ml
  Radiation Dose (Gy) at 10% Survival: 4.6 Gy
  SER: 1.3
[2]; 5.0 μg/ml
  Radiation Dose (Gy) at 10% Survival: 3.9 Gy
  SER: 1.5
[2]; 10 μg/ml
  Radiation Dose (Gy) at 10% Survival: 3.6 Gy
  SER: 1.7
[3]
  RR (relative resistance): >5.0
  Relative resistance of DC3F/C10 cells to the cytotoxic effect: more than 5 fold
[4]
  Percent of cell survival without RT: 98 ± 2%
[5]
  ER (SER per footnote c, sensitization enhancement ratio): 1.7
  Dq (width of the shoulder of the radiation survival curve): drastically reduced
  Induction of RS / enhancement of radiocytotoxicity: induction of RS was observed
  RT dose (Gy) at 10% survival: 4.2 Gy
[8]
  Cross-resistance of mutant TOP1: cross-resistant

## COC1C(CO)OC(n2c3c(Cl)cccc3c3c4c(c5c6cccc(Cl)c6[nH]c5c32)C(=O)N(C)C4=O)C(O)C1O (stereo not shown) [F43]
[3]
  Cytotoxic effect: lack of cytotoxic effect
[4]
  Percent of cell survival without RT: 95 ± 5%
[5]
  ER (SER per footnote c, sensitization enhancement ratio): 1.0
  Enhancement of radiocytotoxicity: do not enhance radiocytotoxicity
  Induction of RS / enhancement of radiocytotoxicity: do not enhance radiocytotoxicity
  RT dose (Gy) at 10% survival: 7.0 Gy
[6]; DC3F cells
  Cytotoxic effect: lack of cytotoxic effect

## COC1C(CO)OC(n2c3ccccc3c3c4c(c5c6ccccc6[nH]c5c32)C(=O)N(C)C4=O)C(O)C1O (stereo not shown) [F44]
[1]
  Induction of RS: incapable of inducing RS
[2]
  Induction of RS: incapable of inducing RS
[3]
  RR (relative resistance): 2.5
  Relative resistance of DC3F/C10 cells to the cytotoxic effect: 2.5 fold
[4]
  Percent of cell survival without RT: 100 ± 2%
[5]
  ER (SER per footnote c, sensitization enhancement ratio): 1.0
  Enhancement of radiocytotoxicity: do not enhance radiocytotoxicity
  Induction of RS / enhancement of radiocytotoxicity: do not enhance radiocytotoxicity
  RT dose (Gy) at 10% survival: 6.9 Gy

## COC1C(CO)OC(n2c3ccccc3c3c4c(c5c6ccccc6[nH]c5c32)C(=O)NC4=O)C(O)C1O (stereo not shown) [F71]
[1]
  Induction of RS: incapable of inducing RS
[2]
  Induction of RS: incapable of inducing RS
[3]
  RR (relative resistance): 2.7
  Relative resistance of DC3F/C10 cells to the cytotoxic effect: 2.7 fold
[4]
  Percent of cell survival without RT: 85 ± 10%
[5]
  ER (SER per footnote c, sensitization enhancement ratio): 1.0
  Enhancement of radiocytotoxicity: do not enhance radiocytotoxicity
  Induction of RS / enhancement of radiocytotoxicity: do not enhance radiocytotoxicity
  RT dose (Gy) at 10% survival: 7.2 Gy
